# Assay results as given in patent US20240261359A1, “PHARMACEUTICAL COMPOSITION FOR USE PREVENTING AND CURING RESPIRATORY DISEASES IN WINTER” (Tianjin University of Traditional Chinese Medicine, priority 2020, published 2024).
# How the values were obtained:
# NF-κB = format: cell-based; conditions: dexamethasone 10 μM with TNF-α, 6 h; L/S; x ± SD, n = 18; model 4641.34, control 17.46
# Method: (§1) The 293T cells in the logarithmic growth phase were taken and inoculated into a 96-well cell culture plate at a density of 2×10^5 cell/mL, and after growth along the walls to 70-80%, a PEI (1 mg/ml) transfecting agent was used to simultaneously transfect them with ARE and NF-κB luciferase reporter plasmids pGL4.37, pGL4.32 (100 ng/well) and a renilla luciferase reported plasmid pGL4.75 (10 ng/well), and they were cultured for 24 h.
# (§2) After 24-h culture, the cells transfected with the ARE luciferase reporter plasmid pGL4.37 are added with tBHQ (10 μM) and safety concentrations of the sample solutions of the individual inventive pharmaceutical composition groups, and by setting a control group, and they were cultured 6 h; the cells transfected with NF-kB luciferase reporter plasmid pGL4.32 were respectively added with dexamethasone (10 μM) diluted by a TNF-α complete culture medium, and safety concentrations of the sample solutions of the individual inventive pharmaceutical composition groups, and by setting a control group, and a model group, and they were cultured for 6 h. The supernatant was discarded, and the cells were rinsed with PBS. After splitting, they were detected by using a Dual-Luciferase detection system. Each set of experiments were configured with 6 compound wells, with 3 repetitions. […]
# ARE = ARE luciferase reporter gene activity in transfected 293T cells; format: cell-based; conditions: tBHQ 10 μM, 6 h; relative luciferase activity L/S; x ± SD, n = 18; control 0.76
# Method: as §1, §2
# [1] = test system: rats suffered from acute pharyngitis caused by Staphylococcus aureus; assay: Scoring of pharyngeal lesions, rat acute pharyngitis model; format: in vivo, SD rats; set-up: key to Pharyngeal inflammatory response grade of most animals: −: pharyngeal tissues were in light red color, and they had moist and glossy surfaces, and no secreted substances, no congestion, no swelling and other pathological phenomena; +: the mucosa in the pharynx had poor gloss, and there were a small amount of secreted substances, and slight congestions and swelling; ++: the mucosa in the pharynx was in a dark red color and poor in the gloss, and secreted substances exist therein, accompanying by moderate congestions and swelling and other phenomena; +++: the mucosa in the pharynx exhibited a dark red color, increased secretion of mucus, and evident congestion and swelling
# [2] = test system: rats suffered from acute pharyngitis caused by Staphylococcus aureus; assay: Pathological morphology of pharyngeal tissues (HE staining), rat acute pharyngitis model; format: in vivo, SD rats; conditions: HE sections, FIG. 2A-2D
# Method: Material taking: rats were anesthetized and pharyngeal tissues were taken and fixed in 4% paraformaldehyde for more than 24 h. The tissues were taken from the fixing solution and in a fume hood, the tissues at the target region were trimmed with a surgical knife. The trimmed tissues and the corresponding tags were placed in a dehydration box.
# Dehydration: the dehydration was conducted by placing the dehydration box in a hanging basket, and in a dehydration machine, the dehydration was conducted with alcohols with gradient concentrations in order. 75% alcohol 1 h-85% alcohol 1 h-90% alcohol 1 h-95% alcohol 1 h-anhydrous ethanol I 30 min-anhydrous ethanol II 30 min-alcohol benzene 5-10 min-xylene I 5-10 min-xylene II 5-10 min-wax I 1 h-wax II 1 h-wax III 1 h.
# Embedding: the tissues immersed with wax were embedded in an embedding machine. The molten wax was placed in an embedding frame first, and before it was solidified, the tissues were taken from the dehydration box and placed in the embedding frame according to requirements on embedded faces and corresponding tags were attached. They were cooled on a freezing table at −20° C., and after wax solidification, the wax block was taken from the embedding frame and trimmed.
# Slicing: the trimmed wax block was sliced on a paraffin slicing machine, in a thickness of 4 μm. […]
# [3] = test system: rats suffered from acute pharyngitis caused by Staphylococcus aureus; assay: Appearance behavior scoring and thymus weight, rat acute pharyngitis model caused by Staphylococcus aureus; format: in vivo, SD rats; conditions: ig, composition 3.5 g/kg, amoxicillin 0.36 g/kg, x ± s, n = 7
# Method: Formulations of medicinal solutions: before the test, distilled water was used to formulate a medicinal solution with a concentration of 0.35 g/ml, which was intragastrically administrated in 1 ml/100 g body weight/time, 2 times/day, and on 7th day after pre-administrations, modelling was started and the intragastric administration was continued for 5 days.
# On 1st day, at 1 h after Staphylococcus aureus infection, the positive medicinal group was intragastrically administrated at a dose of 0.36 g/kg (equivalently equal to the clinical dose of a human), 1 time/day for 5 consecutive days.
# With scoring standard (from Standards for Preparation of Animal Models Suffered from Acute Pharyngitis, enacted by Traditional Chinese medicine Experimental Pharmacology Professional Committee of Traditional Chinese Medicine Institute, Traditional Chinese Medicine Pharmacology and Clinics 2018; 34 (1)), according to weights, mobility, fur color and gloss of rats, they were classified into 4 grades, as shown in the following Table 4.
# [4] = test system: rats suffered from acute pharyngitis caused by Staphylococcus aureus; assay: Inflammatory factors in rat serum by ELISA, rat acute pharyngitis model; format: in vivo, SD rats; conditions: composition 3.5 g/kg, amoxicillin 0.36 g/kg, x ± s, n = 7
# Method: Rates were anesthetized. Blood was taken from abdominal aorta and injected into a procoagulant tube, standing for 45 min at room temperature, and it was centrifuged at 3500 rpm for 10 min. The supernatant was suction taken into a sterile EP tube and stored at −80° C. Before measurements, the samples were re-thawed at room temperature, and the IL-1β, IL-6 and TNF-α levels in serum were measured by enzyme-linked immunosorbent assay (ELISA). The operations were carried out according to the instruction of the kit, and each index was detected by an enzyme-labelled meter at the absorbance 450 nm.
# [5] = test system: rats suffered from acute pharyngitis caused by Staphylococcus aureus; assay: Peripheral white blood cell count and classification, rat acute pharyngitis model; format: in vivo, SD rats; conditions: composition 3.5 g/kg, amoxicillin 0.36 g/kg, x ± s, n = 7
# Text: Before each group of animals were scarified, blood was taken by cutting tails and smeared on plates to conduct routine blood examinations about number of white blood cells, lymphocyte percentages and neutrophils percentages.
# [6] = of 7 rats, composition 3.5 g/kg, amoxicillin 0.36 g/kg
structure (smiles),measurement,setting,value
"C[C@@H]1C[C@H]2[C@@H]3CCC4=CC(=O)C=C[C@]4(C)[C@@]3(F)[C@@H](O)C[C@]2(C)[C@@]1(O)C(=O)CO [Dex, Dexamethasone]",NF-κB luciferase activity of 293T cells,NF-κB,968.61
"CC(C)(C)c1cc(O)ccc1O [tBHQ, Tertiary butylhydroquinone]",ARE luciferase activity of 293T cells,ARE,3.55
CC1(C)S[C@@H]2[C@H](NC(=O)[C@H](N)c3ccc(O)cc3)C(=O)N2[C@H]1C(=O)O [Amoxicillin],Pharyngeal lesions: number of animals in grade +,[1]; [6],6
same,Pharyngeal lesions: number of animals in grade ++,[1]; [6],1
same,Pharyngeal lesions: number of animals in grade +++,[1]; [6],0
same,Pharyngeal lesions: number of animals in grade −,[1]; [6],0
same,Pharyngeal inflammatory response grade of most animals,[1]; summary of Table 6,+
same,"Pathological morphology of pharyngeal tissues (inflammatory cell infiltration, mucosa recovery)",[2],very similar to those in the inventive pharmaceutical composition group
same,Thymus gland,[3],0.26 ± 0.11 g
same,Fur gloss (appearance behavior score),[3]; index grade 0-3 (Table 4),1.14 ± 0.38
same,Mobility (appearance behavior score),[3]; index grade 0-3 (Table 4),1.43 ± 0.53
same,IL-1β (pg/mL) in peripheral blood,[4],254.04 ± 59.15 pg/mL
same,IL-6 (pg/mL) in peripheral blood,[4],28.21 ± 8.67 pg/mL
same,TNF-α (pg/mL) in peripheral blood,[4],145.14 ± 30.98 pg/mL
same,"L (%), percentages of lymphocytes",[5],76.37 ± 7.42 %
same,"N (%), percentages of neutrophils",[5],19.5 ± 6.77 %
same,"WBC (×10^9/L), white cells",[5],8.17 ± 30^ ×10^9/L
